{
  "source": "patent US20080312227A1",
  "about": "“Substituted Pyrido(2,3-D) Pyrimidine Derivatives Useful as Medicines for the Treatment of Autoimmune Disorders” (4 AZA BIOSCIENCE NV, priority 2005, published 2008)",
  "key": {"[1]": {"test_system": "human TNF-α production by PBMC", "assay": "TNF-α assay (LPS-stimulated PBMC, sandwich ELISA)", "assay_type": "cell-based", "conditions": "PBMC stimulated with LPS 1 μg/ml, 72 hours, read-out: TNF α (IC50 in the TNFα assay)", "procedure": "(§1) Peripheral blood mononuclear cells (herein referred as PBMC), in response to stimulation by lipopolysaccharide (hereinafter LPS), a gram-negative bacterial endotoxin, produce various […], in particular human TNF-α. Inhibition of the activation of PBMC can therefore be measured by the level of suppression of the production of TNF-α by PBMC in response to stimulation by LPS.\nSuch inhibition measurement was performed as follows: PBMC were isolated from heparinized peripheral blood by density gradient centrifugation over Lymphoprep (commercially available from Nycomed, Norway). LPS was then added to the PMBC suspension in complete medium (10^6 cells/ml) at a final concentration of 1 μg/ml. The pyrido[3,2-d]pyrimidine derivative to be tested was added at different concentrations (0.1 μM, 1 μM and 10 μM) and the cells were incubated at 37° C. for 72 hours in 5% CO2. The supernatants were collected, then TNF-α concentrations were measured with respectively an anti-TNF-α antibody in a sandwich ELISA (Duo Set ELISA human TNFα, commercially available from R&D Systems, United Kingdom). The colorimetric reading of the ELISA was measured by a Multiskan RC plate reader (commercially available from ThermoLabsystems, Finland) at 450 nm (reference wavelength: 690 nm). Data analysis was performed with Ascent software 2.6. (also from ThermoLabsystems, Finland): a standard curve (recombinant human TNFα) was drawn and the amount (pg/ml) of each sample on the standard curve was determined.\nThe % suppression of human TNFα production by the pyrido[2,3-d]pyrimidine derivatives of the invention was calculated using the formula: […]"}, "[2]": {"test_system": "mixed lymphocyte reaction (PBMC with irradiated allogeneic PBMC or RPMI1788 stimulator cells)", "assay": "Mixed lymphocyte reaction (MLR) assay", "assay_type": "cell-based, human", "conditions": "read-out: MLR (IC50, lowest concentration giving 50% suppression of the MLR)", "procedure": "Pyrido[2,3-d]pyrimidine derivatives were first dissolved (10 mM) in dimethyl-sulfoxide (hereinafter referred as DMSO) and further diluted in culture medium before use for the following in vitro experiments. The commercially available culture medium consisted of RPMI-1640+10% foetal calf serum (FCS). Some pyrido[2,3-d]pyrimidine derivatives described herein were tested in the following mixed lymphocyte reaction (MLR) assay.\nPeripheral blood mononuclear cells (hereinafter referred as PBMC) were isolated from heparinized peripheral blood by density gradient centrifugation over Lymphoprep (Nycomed, Maorstua, Norway). Allogeneic PBMC or Eppstein-Barr Virus-transformed human B cells [commercially available under the trade name RPMI1788 (ATCC name CCL156)] which strongly express B7-1 and B7-2 antigens were used as stimulator cells after irradiation with 30 Gy. MLR was performed in triplicate wells. After 5 days incubation at 37° C., 1 μCi [^3H]-thymidine was added to each cup. After a further 16 hours incubation, cells were harvested and counted in a β-counter. Inhibition of proliferation by a compound described in some of the present examples was counted while using the formula: […]\nwherein cpm is the thymidine count per minute. The MLR assay is regarded by those skilled in the art as an in vitro analogue of the transplant rejection since it is based on the recognition of allogeneic major histocompatibility antigens on the stimulator leukocytes, by responding lymphocytes."}, "[3]": {"test_system": "human IL-1 β production by PBMC", "assay": "IL-1 β assay (LPS-stimulated PBMC, sandwich ELISA)", "assay_type": "cell-based", "conditions": "PBMC stimulated with LPS 1 μg/ml, 72 hours, read-out: IC50 in the IL-1 β test (50% suppression of human IL-1 β)", "procedure": "as §1, with “(LPS),” for “(hereinafter LPS),”, “IL-1 β.” for “TNF-α.”, “IL-1 β” for “TNF-α”\nSuch inhibition measurement was performed as follows: PBMC were isolated from heparinized peripheral blood by density gradient centrifugation over Lymphoprep (commercially available from Nycomed, Norway). LPS was then added to the PMBC suspension in complete medium (10^6 cells/ml) at a final concentration of 1 μg/ml. […] The supernatants were collected, then IL-1 β concentrations were measured with an anti-IL-1 β antibody in a sandwich ELISA. The calorimetric reading of the ELISA was measured by a Multiskan RC plate reader (commercially available from ThermoLabsystems, Finland) at 450 nm (reference wavelength: 690 nm). […] (also from ThermoLabsystems, Finland): a standard curve (recombinant human IL-1 β) was drawn and the amount (pg/ml) of each sample on the standard curve was determined.\nThe % suppression of human IL-1 β by the pyrido[2,3-d]pyrimidine derivatives of this invention was calculated using the formula: […]"}, "[4]": {"conditions": "Homo sapiens, RPMI-1788, 5 days incubation then 16 h [3H]-thymidine"}, "[5]": {"conditions": "5 days incubation then 16 h [3H]-thymidine"}},
  "note": "Structures can show the parent of a compound that is named as a salt. Where two headings read alike, the source gives them in different places.",
  "data": [
    {"molecule": "2-amino-6-(3,4-dimethoxyphenyl)-4-(4-N-methyl piperidinoxy)pyrido[2,3-d]pyrimidine [Example 34]", "values": [
      {"measurement": "IC50", "setting": "[1]", "value": 6.7, "unit": "µM"}
    ]},
    {"molecule": "COc1ccc(-c2cnc3nc(N)nc(OC(C)C)c3c2)cc1OC", "note": "[Example 2, 2-amino-4-isopropoxy-6-(3,4-dimethoxyphenyl)-pyrido[2,3-d]pyrimidine]", "values": [
      {"measurement": "IC50", "setting": "[1]; Homo sapiens", "value": 0.09, "unit": "µM"},
      {"measurement": "IC50", "setting": "[2]; [4]", "value": 0.9, "unit": "µM"}
    ]},
    {"molecule": "COc1ccc(-c2cnc3nc(N)nc(N4CCOCC4)c3c2)cc1OC", "note": "[Example 4, 2-amino-4-morpholino-6-(3,4-dimethoxyphenyl)-pyrido[2,3-d]pyrimidine]", "values": [
      {"measurement": "IC50", "setting": "[1]; Homo sapiens", "value": 3.2, "unit": "µM"},
      {"measurement": "IC50", "setting": "[2]; [4]", "value": 4.8, "unit": "µM"}
    ]},
    {"molecule": "Cc1ccc(NC(=O)N2CCN(c3nc(N)nc4ncc(Br)cc34)CC2)cc1", "note": "[Example 7, 2-amino-4-[N-4-methylphenylcarbamoyl-piperazin-1-yl]-6-bromo-pyrido[2,3-d]pyrimidine]", "values": [
      {"measurement": "IC50", "setting": "[2]; [5]", "value": 0.7, "unit": "µM"}
    ]},
    {"molecule": "COc1ccc(-c2cnc3nc(N)nc(N4CCN(C(=O)COc5ccccc5)CC4)c3c2)cc1OC", "note": "[Example 10, 2-amino-4-(N-phenoxyacetyl-N-piperazin-1-yl)-6-(3,4-dimethoxyphenyl)pyrido[2,3d]pyrimidine]", "values": [
      {"measurement": "IC50", "setting": "[1]", "value": 1.7, "unit": "µM"},
      {"measurement": "IC50", "setting": "[2]; [5]", "value": 0.3, "unit": "µM"}
    ]},
    {"molecule": "COc1ccc(-c2cnc3nc(N)nc(N4CCN(C(=O)Nc5ccc(C)cc5)CC4)c3c2)cc1OC", "note": "[Example 12, 2-amino-4-(N-4-methylphenylcarbamoyl-piperazin-1-yl]-6-(3,4-dimethoxyphenyl)pyrido[2,3-d]pyrimidine]", "values": [
      {"measurement": "IC50", "setting": "[1]", "value": 4.9, "unit": "µM"},
      {"measurement": "IC50", "setting": "[2]; [5]", "value": 0.4, "unit": "µM"}
    ]},
    {"molecule": "COc1ccc(-c2cnc3nc(N)nc(N4CCN(C(=O)OCc5ccccc5)CC4)c3c2)cc1OC", "note": "[Example 15, 2-amino-6-(3,4-dimethoxyphenyl)-4-[(N-benzyloxycarbonyl)-piperazin-1-yl]-pyrido[2,3-d]pyrimidine]", "values": [
      {"measurement": "IC50", "setting": "[1]", "value": 0.9, "unit": "µM"},
      {"measurement": "IC50", "setting": "[2]; [5]", "value": 0.8, "unit": "µM"},
      {"measurement": "IC50", "setting": "[3]", "value": 7, "unit": "µM"}
    ]},
    {"molecule": "CC(C)Oc1nc(N)nc2ncc(-c3cccs3)cc12", "note": "[Example 21, 2-amino-4-isopropoxy-6-(2-thienyl)pyrido[2,3-d]pyrimidine]", "values": [
      {"measurement": "IC50", "setting": "[1]; Homo sapiens", "value": 0.8, "unit": "µM"}
    ]},
    {"molecule": "COc1ccc(-c2cnc3nc(N)nc(N4CCNCC4)c3c2)cc1OC", "note": "[Example 22, 2-amino-4-(piperazin-1-yl)-6-(3,4-dimethoxyphenyl)-pyrido[2,3-d]pyrimidine]", "values": [
      {"measurement": "IC50", "setting": "[1]; Homo sapiens", "value": 8.1, "unit": "µM"}
    ]},
    {"molecule": "COc1ccc(-c2cnc3nc(N)nc(N4CCN(Cc5ccccc5)CC4)c3c2)cc1OC", "note": "[Example 23, 2-amino-4-(4-benzylpiperazin-1-yl)-6-(3,4-dimethoxyphenyl)-pyrido[2,3-d]pyrimidine]", "values": [
      {"measurement": "IC50", "setting": "[1]; Homo sapiens", "value": 0.7, "unit": "µM"},
      {"measurement": "IC50", "setting": "[2]; [4]", "value": 7.2, "unit": "µM"}
    ]},
    {"molecule": "CCCNc1nc(N)nc2ncc(-c3ccc(OC)c(OC)c3)cc12", "note": "[Example 30, 2-amino-4-n-propylamino-6-(3,4-dimethoxyphenyl)pyrido[2,3-d]pyrimidine]", "values": [
      {"measurement": "IC50", "setting": "[1]; Homo sapiens", "value": 4, "unit": "µM"},
      {"measurement": "IC50", "setting": "[2]; [4]", "value": 5.2, "unit": "µM"}
    ]},
    {"molecule": "COc1ccc(-c2cnc3nc(N)nc(NC(C)C)c3c2)cc1OC", "note": "[Example 31, 2-amino-4-isopropylamino-6-(3,4-dimethoxyphenyl)pyrido[2,3-d]pyrimidine]", "values": [
      {"measurement": "IC50", "setting": "[1]; Homo sapiens", "value": 0.7, "unit": "µM"},
      {"measurement": "IC50", "setting": "[2]; [4]", "value": 5.7, "unit": "µM"}
    ]},
    {"molecule": "COc1ccc(-c2cnc3nc(N)nc(N4CCCCC4)c3c2)cc1OC", "note": "[Example 32, 2-amino-4-(1-piperidino)-6-(3,4-dimethoxyphenyl)pyrido[2,3-d]pyrimidine]", "values": [
      {"measurement": "IC50", "setting": "[1]", "value": 0.9, "unit": "µM"},
      {"measurement": "IC50", "setting": "[2]; [5]", "value": 1.9, "unit": "µM"}
    ]},
    {"molecule": "COc1ccc(-c2cnc3nc(N)nc(OC4CCOCC4)c3c2)cc1OC", "note": "[Example 33, 2-amino-4-(tetrahydro-2H-pyran-4-yloxy)-6-(3,4-dimethoxyphenyl)pyrido[2,3-d]pyrimidine]", "values": [
      {"measurement": "IC50", "setting": "[1]; Homo sapiens", "value": 0.6, "unit": "µM"},
      {"measurement": "IC50", "setting": "[2]; [4]", "value": 2.4, "unit": "µM"}
    ]},
    {"molecule": "COc1ccc(-c2cnc3nc(N)nc(OC)c3c2)cc1OC", "note": "[Example 35, 2-amino-4-methoxy-6-(3,4-dimethoxyphenyl)pyrido[2,3d]pyrimidine]", "values": [
      {"measurement": "IC50", "setting": "[1]", "value": 0.9, "unit": "µM"},
      {"measurement": "IC50", "setting": "[2]; [5]", "value": 6.2, "unit": "µM"}
    ]},
    {"molecule": "CCC(C)Oc1nc(N)nc2ncc(-c3ccc(OC)c(OC)c3)cc12", "note": "(centres unmarked) [Example 36, 2-amino-4-(sec-butoxy)-6-(3,4-dimethoxyphenyl)-pyrido[2,3d]pyrimidine]", "values": [
      {"measurement": "IC50", "setting": "[1]", "value": 0.6, "unit": "µM"},
      {"measurement": "IC50", "setting": "[2]; [5]", "value": 2.6, "unit": "µM"}
    ]},
    {"molecule": "CCC(C)Oc1nc(N)nc2ncc(-c3ccc(OC)c(OC)c3)cc12", "note": "(centres unmarked) [Example 37, hydrochloride salt of 2-amino-4-(sec-butoxy)-6-(3,4-dimethoxyphenyl)-pyrido[2,3-d]pyrimidine]", "values": [
      {"measurement": "IC50", "setting": "[1]", "value": 0.5, "unit": "µM"},
      {"measurement": "IC50", "setting": "[2]; [5]", "value": 3.2, "unit": "µM"}
    ]},
    {"molecule": "Cc1ccc(-c2cnc3nc(N)nc(OC(C)C)c3c2)cc1C", "note": "[Example 38, 2-amino-4-isopropoxy-6-(3,4-dimethylphenyl)-pyrido[2,3-d]pyrimidine]", "values": [
      {"measurement": "IC50", "setting": "[1]; Homo sapiens", "value": 0.9, "unit": "µM"}
    ]},
    {"molecule": "COc1ccc(-c2cnc3nc(N)nc(Nc4cccc(Br)c4)c3c2)cc1OC", "note": "[Example 42, 2-amino-4-(3-bromo-anilino)-6-(3,4-dimethoxyphenyl)pyrido[2,3-d]pyrimidine]", "values": [
      {"measurement": "IC50", "setting": "[1]; Homo sapiens", "value": 3.3, "unit": "µM"},
      {"measurement": "IC50", "setting": "[2]; [4]", "value": 3.3, "unit": "µM"},
      {"measurement": "IC50", "setting": "[3]; Homo sapiens", "value": 7, "unit": "µM"}
    ]},
    {"molecule": "COc1ccc(-c2cnc3nc(N)nc(NCc4ccccc4)c3c2)cc1OC", "note": "[Example 43, 2-amino-4-(benzylamino)-6-(3,4-dimethoxyphenyl)pyrido[2,3-d]pyrimidine]", "values": [
      {"measurement": "IC50", "setting": "[2]; [4]", "value": 5, "unit": "µM"}
    ]},
    {"molecule": "COc1ccc(-c2cnc3nc(N)nc(NCCc4ccccc4)c3c2)cc1OC", "note": "[Example 44, 2-amino-4-(phenylethylamino)-6-(3,4-dimethoxyphenyl)pyrido[2,3-d]pyrimidine]", "values": [
      {"measurement": "IC50", "setting": "[1]; Homo sapiens", "value": 4.2, "unit": "µM"},
      {"measurement": "IC50", "setting": "[2]; [4]", "value": 4.3, "unit": "µM"}
    ]}
  ]
}
